Assay results published in ChEMBL document CHEMBL3988442, “University of Dundee, Small-Polar-MMV Screening Library” (2021).
“And” between values parts separate entries of the source, which are not always exact repeats. Equal entries are not always repeated.

Experiments:
[1] = target: Sialic acid-binding Ig-like lectin 9 (Homo sapiens, UniProt Q9Y336); assay: Hs-Siglec9 ALPHAscreen SOP 20170721
[2] = microbe, parasite or virus in culture; conditions: Mycobacterium tuberculosis, 96 h, read-out: pIC50 (converted)
[3] = microbe, parasite or virus in culture; conditions: Mycobacterium tuberculosis, 72 h, read-out: pIC50 (converted)

Sialic acid-binding Ig-like lectin 9, sequence (Q9Y336 whole entry): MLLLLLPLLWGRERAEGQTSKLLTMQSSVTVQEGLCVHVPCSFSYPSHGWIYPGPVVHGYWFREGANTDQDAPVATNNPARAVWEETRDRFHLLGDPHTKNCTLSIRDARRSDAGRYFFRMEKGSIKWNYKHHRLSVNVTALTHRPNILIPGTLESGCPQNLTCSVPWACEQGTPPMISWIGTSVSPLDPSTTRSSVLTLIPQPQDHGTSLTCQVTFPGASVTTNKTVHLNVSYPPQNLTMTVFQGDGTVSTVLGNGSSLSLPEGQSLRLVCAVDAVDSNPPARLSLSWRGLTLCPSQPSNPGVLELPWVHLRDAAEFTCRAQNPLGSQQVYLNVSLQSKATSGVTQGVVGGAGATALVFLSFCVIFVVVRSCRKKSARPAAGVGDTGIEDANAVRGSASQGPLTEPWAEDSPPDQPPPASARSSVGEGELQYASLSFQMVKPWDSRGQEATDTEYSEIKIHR

| SMILES | IC50 [1] | IC50 [2] [µM] | IC50 [3] [µM] |
| --- | --- | --- | --- |
| COC(=O)C(O)C1CCN(CCc2ccc(C)cc2)CC1 (stereo not given) | > 30.2 µM |  |  |
| COCCNC(=O)c1nnn(Cc2ccccc2)c1OC | > 30.2 µM |  |  |
| CCC(=O)NCC(=O)NCc1cc(Br)ccc1OC(F)F | > 30.2 µM |  |  |
| COc1cc(C(=O)N2CCC(Nc3cccnc3)CC2)ccc1C | > 30.2 µM |  |  |
| Cc1occc1C(=O)N1CCO[C@H]2[C@H](Oc3cccnc3)CC[C@@H]21 | > 30.2 µM |  |  |
| CC(C)n1cnnc1C1CCCN(C(=O)COCc2ccccc2)C1 (stereo not given) | > 30.2 µM |  |  |
| Cn1ncc2c1C(COCC1CC1)CN(Cc1ccsc1)C2 (stereo not given) | > 30.2 µM | > 50.1 |  |
| CCc1nc(C2CCCN2c2ncc(Br)cn2)no1 (stereo not given) | > 30.2 µM |  |  |
| CCOC(=O)CNC(=O)c1cc2n(n1)CCCO2 | > 30.2 µM |  |  |
| COc1cc(C)sc1C(=O)N1CCC(Nc2cccnc2)CC1 | > 30.2 µM | > 50.1 | > 50.1 |
| CN(C)C(=O)COC[C@]12COC[C@H]1CN(Cc1ccoc1)C2 | > 30.2 µM |  |  |
| NC(=O)c1csc(N2C[C@@H](CN3CCOCC3)[C@@H](CO)C2)n1 | > 30.2 µM |  |  |
| CCN1CC2(CCN(C(=O)N(C)C)CC2)COc2ccccc2S1(=O)=O | > 30.2 µM |  |  |
| CCc1cc(N2CC(N3CCCCC3C)C2)n2nccc2n1 (stereo not given) | > 30.2 µM |  |  |
| CCn1ncnc1C1CC(=O)NCc2nc(N3CCCC3)sc21 (stereo not given) | > 30.2 µM |  |  |
| COCCN(CCOC)C(=O)c1ccoc1C | > 30.2 µM |  |  |
| CC(C)NC(=O)c1csc(NC2CC2)n1 | > 30.2 µM |  |  |
| COc1c(C(=O)NCc2cccnc2)nnn1Cc1ccc(C)cc1 | > 30.2 µM |  |  |
| COc1ccc(C(C)NCc2ccnn2C)cc1Cn1cccn1 (stereo not given) | > 30.2 µM |  |  |
| COc1ccc(C(C)NCc2scnc2C)cc1Cn1cccn1 (stereo not given) | > 30.2 µM |  |  |
| CC(C)n1cnnc1C1CCCN(S(=O)(=O)CCCF)C1 (stereo not given) | > 30.2 µM |  |  |
| COC(=O)C(O)C1CCN(CCc2ccncc2)CC1 (stereo not given) | > 30.2 µM |  |  |
| Cc1cc(CNC(=O)c2ccno2)c(C)o1 | > 30.2 µM |  |  |
| CCn1ncnc1C1CC(=O)NCc2nc(N3CCOCC3)sc21 (stereo not given) | > 30.2 µM |  |  |
| Cc1occc1C(=O)N1CCOC2(CCCC2)C1 | > 30.2 µM |  |  |
| CC(=O)N1Cc2ccnn2CC(C(=O)NCc2cccnc2)C1 (stereo not given) | > 30.2 µM |  |  |

| SMILES | IC50 [1] | IC50 [2] [µM] | IC50 [3] [µM] |
| --- | --- | --- | --- |
| Cc1ncsc1CCC(=O)NCc1csc(N2CCCC2)n1 | > 30.2 µM |  |  |
| COc1ccc([C@@H]2CN(Cc3ccncc3)C[C@H]2c2cc[nH]n2)cc1 | > 30.2 µM |  |  |
| Cc1ccnc(NC(=O)c2c(C)oc(C)c2C)c1 | > 30.2 µM |  |  |
| COCCN1CCC2(CC1)COc1ccccc1S(=O)(=O)N(C)C2 | > 30.2 µM |  |  |
| CC(C)CCNc1nc(C(=O)NC2CC2)cs1 | > 30.2 µM |  |  |
| CN(C)C(=O)COC[C@]12COC[C@H]1CN(CC1CCC1)C2 | > 30.2 µM |  |  |
| Cc1nc(CN2C[C@@H]3COC[C@]3(COCC(=O)N(C)C)C2)cs1 | > 30.2 µM |  |  |
| Cc1cc(CNC(=O)c2cnoc2C)c(C)o1 | > 30.2 µM |  |  |
| Cc1cc(C(=O)N2CCO[C@H]3[C@H](Oc4ccccn4)CC[C@@H]32)c(C)[nH]1 | > 30.2 µM |  |  |
| CCc1cc(N2CCN3CCCCC3C2)n2nccc2n1 (stereo not given) | > 30.2 µM |  |  |
| CN(C)C(=O)CN1CCC2(CC1)COc1ccccc1S(=O)(=O)N(C)C2 | > 30.2 µM |  |  |
| COCCC1(C(=O)NCCc2nncn2C2CC2)CCC1 | > 30.2 µM |  |  |
| c1csc(CN2Cc3nccn3CC(Cn3cncn3)C2)n1 (stereo not given) | > 30.2 µM |  |  |
| CNC(=O)C1CCN(c2nc3nc[nH]c(=O)c3s2)CC1 | > 30.2 µM |  |  |
| Cc1ccsc1C(=O)N1CCC(Nc2cccnc2)CC1 | 14.5 µM and > 30.2 µM |  |  |
| O=C1Nc2ccccc2CNC12CCN(CC1CCCC1)CC2 | > 30.2 µM |  |  |
| CN1Cc2ccccc2NC(=O)C12CCNC2 (stereo not given) | > 30.2 µM |  |  |
| CCS(=O)(=O)CCNC(=O)c1cc2n(n1)CCCO2 | > 30.2 µM |  |  |
| CCc1nc(C2CCCN(c3nccc(C)n3)C2)no1 (stereo not given) | > 30.2 µM |  |  |
| CC(C)n1cnnc1C1CCCN(S(=O)(=O)c2c[nH]cn2)C1 (stereo not given) | > 30.2 µM |  |  |
| CN(C)C(=O)COC[C@]12COC[C@H]1CN(Cc1ccccc1)C2 | > 30.2 µM |  |  |
| CC(c1ccc(Cl)cc1)N1CCN(CCNS(C)(=O)=O)CC1 (stereo not given) | > 30.2 µM |  |  |
| Cc1occc1C(=O)N1CCO[C@H]2[C@@H](Oc3ccccn3)CC[C@@H]21 | > 30.2 µM |  |  |
| CCN(CC)C(=O)c1nnn(Cc2ccccc2)c1OC | > 30.2 µM |  |  |
| CCn1ncc2c1C(COC)CN(Cc1cnn(C)c1)C2 (stereo not given) | > 30.2 µM |  |  |
| COc1cc(C)sc1C(=O)N1CC(c2cccnc2)C1 | > 30.2 µM |  |  |
